Measured values taken from article PMC9127750, “Structure-based design of CDC42 effector interaction inhibitors for the treatment of cancer” (Cell reports, 2022).

Tested on: WM3248 melanoma cells, 486 antibodies
Experiment: Reverse phase protein arrays (RPPA);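 on RPPA ACC1.R.C: ratio of treated to vehicle (0 µM) normalized linear protein signal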;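 on RPPA AMPK.a2 pS345.R.V: ratio of treated to vehicle (0 µM) normalized linear protein signal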;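 on RPPA AMPKa pT172.R.C: ratio of treated to vehicle (0 µM) normalized linear protein signal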;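 on RPPA ASNS.R.V: ratio of treated to vehicle (0 µM) normalized linear protein signal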;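 on RPPA AceCS1.R.V: ratio of treated to vehicle (0 µM) normalized linear protein signal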;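 on RPPA Akt1.R.V: ratio of treated to vehicle (0 µM) normalized linear protein signal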;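 on RPPA Atg5.R.C: ratio of treated to vehicle (0 µM) normalized linear protein signal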;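 on RPPA Bim.R.V: ratio of treated to vehicle (0 µM) normalized linear protein signal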
Type: cell-based, Human
Conditions: 20 uM
Description: Pellets were snap frozen in liquid nitrogen and shipped to MD Anderson Cancer Center core RPPA facility for RPPA analysis (Table S5). Three biological replicates for each sample were generated.
Nomenclatures on the RPPA heatmaps: name_of_antibody.species_of_antibody.status_of_antibody. V - antibody validated; C - validation of antibody in progress; Q - antibody nonspecific; E – under evaluation; antibodies raised in M - mouse, G - goat, R - rabbit, or T - rat.

CN(C)c1cccc(Nc2cc(-c3ccccc3)nc(C3CCNCC3)n2)c1 [ARN22089, N1,N1-dimethyl-N3-(6-phenyl-2-(piperidin-4-yl)pyrimidin-4-yl)benzene-1,3-diamine]
RPPA p38.a.M.V Average: 0.905 | RPPA p44.42.MAPK.R.V Average: 1.030 | RPPA p53.R.C Average: 1.157 | RPPA p70.S6K1.R.V Average: 1.027 | RPPA p70.S6K_pT389.R.V Average: 0.996 | RPPA p90RSK_pT573.R.C Average: 1.014 | RPPA A.Raf.R.V (20W1): 1.011 | RPPA ACC1.R.C (20W1): 0.890 | RPPA ACLY_pS455.R.V (20W1): 1.224 | RPPA ACSL1.R.V (20W1): 0.955 | RPPA ACVRL1.R.C (20W1): 0.972 | RPPA ADAR1.M.V (20W1): 1.307 | RPPA ALKBH5.R.V (20W1): 0.885 | RPPA AMPK.a2_pS345.R.V (20W1): 1.081 | RPPA AMPKa.R.C (20W1): 1.032 | RPPA AMPKa_pT172.R.C (20W1): 3.755 | RPPA AR.R.V (20W1): 0.874 | RPPA ARID1A.R.C (20W1): 1.514 | RPPA ASNS.R.V (20W1): 0.742 | RPPA ATM.R.V (20W1): 1.024 | RPPA ATM_pS1981.R.V (20W1): 1.111 | RPPA ATP5A.M.C (20W1): 1.018 | RPPA ATP5H.R.V (20W1): 1.117 | RPPA ATR.R.V (20W1): 1.005 | RPPA ATRX.R.C (20W1): 1.357 | RPPA ATR_pS428.R.C (20W1): 1.054 | RPPA AceCS1.R.V (20W1): 0.907 | RPPA Akt1.R.V (20W1): 0.811 | RPPA Akt1_pS473.R.V (20W1): 1.162 | RPPA Akt2.R.V (20W1): 0.873 | RPPA Akt.R.V (20W1): 0.913 | RPPA Akt_pS473.R.V (20W1): 0.795 | RPPA Akt_pT308.R.V (20W1): 0.845 | RPPA Ambra1_pS52.R.C (20W1): 1.101 | RPPA Annexin.I.M.V (20W1): 0.972 | RPPA Atg3.R.V (20W1): 0.914 | RPPA Atg4B.R.C (20W1): 0.881 | RPPA Atg5.R.C (20W1): 0.779 | RPPA Atg7.R.V (20W1): 0.813 | RPPA Aurora.A.R.C (20W1): 0.656 | RPPA Aurora.ABC_pT288_pT232_pT198.R.C (20W1): 0.959 | RPPA Aurora.B.R.V (20W1): 1.341 | RPPA Axl.R.V (20W1): 0.908 | RPPA B7.H3.R.C (20W1): 0.771 | RPPA B7.H4.R.C (20W1): 1.034 | RPPA B.Raf.R.C (20W1): 0.907 | RPPA B.Raf_pS445.R.V (20W1): 0.934 | RPPA BAP1.M.V (20W1): 0.877 | RPPA BCL2A1.R.V (20W1): 0.987 | RPPA BMK1.Erk5_pT218_Y220.R.V (20W1): 0.909 | RPPA BRCA1.M.C (20W1): 1.231 | RPPA BRD4.R.V (20W1): 1.228 | RPPA Bad_pS112.R.V (20W1): 1.119 | RPPA Bak.R.C (20W1): 1.000 | RPPA Bax.R.V (20W1): 0.927 | RPPA Bcl2.R.C (20W1): 1.064 | RPPA Bcl.xL.R.V (20W1): 1.008 | RPPA Beclin.R.C (20W1): 0.873 | RPPA BiP.GRP78.M.C (20W1): 0.914 | RPPA Bid.R.C (20W1): 0.954 | RPPA Bim.R.V (20W1): 1.054 | RPPA X4E.BP1.R.V (20W1): 1.323 | RPPA X4E.BP1_pS65.R.V (20W1): 0.718 | RPPA X4E.BP1_pT37_T46.R.V (20W1): 0.651 | RPPA X14.3.3.zeta.R.V (20W1): 0.801 | RPPA X14.3.3βR.V (20W1): 1.140 | RPPA X14.3.3εM.C (20W1): 0.864 | RPPA b.Actin.R.C (20W1): 1.078 | RPPA b.Catenin.R.V (20W1): 0.844 | RPPA b.Catenin_pT41_S45.R.V (20W1): 1.120 | RPPA c.Abl.R.V (20W1): 1.161 | RPPA c.IAP2.R.C (20W1): 1.080 | RPPA A.Raf.R.V (20W3): 0.992 | RPPA A.Raf_pS299.R.C (20W3): 0.987 | RPPA ACC1.R.C (20W3): 0.779 | RPPA ACC_pS79.R.V (20W3): 0.983 | RPPA ACLY_pS455.R.V (20W3): 0.970 | RPPA ACSL1.R.V (20W3): 0.853 | RPPA ACVRL1.R.C (20W3): 0.984 | RPPA ALKBH5.R.V (20W3): 0.991 | RPPA AMPK.a2_pS345.R.V (20W3): 1.134 | RPPA AMPKa.R.C (20W3): 1.122 | RPPA AMPKa_pT172.R.C (20W3): 2.117 | RPPA AR.R.V (20W3): 1.261 | RPPA ARID1A.R.C (20W3): 1.115 | RPPA ASNS.R.V (20W3): 1.296 | RPPA ATM.R.V (20W3): 0.991 | RPPA ATM_pS1981.R.V (20W3): 0.989 | RPPA ATP5A.M.C (20W3): 0.955 | RPPA ATP5H.R.V (20W3): 0.967 | RPPA ATR.R.V (20W3): 0.989 | RPPA ATR_pS428.R.C (20W3): 1.254 | RPPA AceCS1.R.V (20W3): 0.994 | RPPA Akt1.R.V (20W3): 1.129 | RPPA Akt1_pS473.R.V (20W3): 1.135 | RPPA Akt2.R.V (20W3): 1.035 | RPPA Akt2_pS474.R.C (20W3): 1.166 | RPPA Akt.R.V (20W3): 0.976 | RPPA Akt_pS473.R.V (20W3): 1.265 | RPPA Ambra1_pS52.R.C (20W3): 0.996 | RPPA Annexin.I.M.V (20W3): 0.990 | RPPA Annexin.VII.M.V (20W3): 0.885 | RPPA Atg3.R.V (20W3): 1.076 | RPPA Atg4B.R.C (20W3): 1.076 | RPPA Atg5.R.C (20W3): 0.960 | RPPA Aurora.A.R.C (20W3): 0.983 | RPPA Aurora.ABC_pT288_pT232_pT198.R.C (20W3): 1.060 | RPPA Axl.R.V (20W3): 1.478 | RPPA B7.H3.R.C (20W3): 1.058 | RPPA B7.H4.R.C (20W3): 1.107 | RPPA B.Raf_pS445.R.V (20W3): 1.167 | RPPA BAP1.M.V (20W3): 0.964 | RPPA BMK1.Erk5_pT218_Y220.R.V (20W3): 0.926 | RPPA BRCA1.M.C (20W3): 0.977 | RPPA BRD4.R.V (20W3): 1.002 | RPPA Bad_pS112.R.V (20W3): 1.163 | RPPA Bax.R.V (20W3): 1.054 | RPPA Bcl2.R.C (20W3): 0.975 | RPPA Bcl.xL.R.V (20W3): 1.190 | RPPA Beclin.R.C (20W3): 0.948 | RPPA BiP.GRP78.M.C (20W3): 1.003 | RPPA Bid.R.C (20W3): 0.943 | RPPA Bim.R.V (20W3): 0.917 | RPPA X4E.BP1.R.V (20W3): 1.550 | RPPA X4E.BP1_pS65.R.V (20W3): 1.024 | RPPA X4E.BP1_pT37_T46.R.V (20W3): 1.034 | RPPA X14.3.3βR.V (20W3): 0.902 | RPPA X14.3.3εM.C (20W3): 0.973 | RPPA b.Actin.R.C (20W3): 0.977 | RPPA b.Catenin.R.V (20W3): 1.021 | RPPA b.Catenin_pT41_S45.R.V (20W3): 1.082 | RPPA c.Abl.R.V (20W3): 1.234 | RPPA c.Abl_pY412.R.C (20W3): 1.114 | C.Raf.R.C RPPA level (Average): 1.061 | CA9.R.C RPPA level (Average): 0.925 | CD2.M.C RPPA level (Average): 0.936 | CD4.R.V RPPA level (Average): 1.006 | CD5.M.C RPPA level (Average): 0.966 | CD20.R.C RPPA level (Average): 1.099 | CD31.M.V RPPA level (Average): 0.988 | CD38.R.C RPPA level (Average): 1.131 | CD44.R.C RPPA level (Average): 0.982 | CD45.M.V RPPA level (Average): 0.957 | CD49b.M.V RPPA level (Average): 0.989 | CD68.M.C RPPA level (Average): 0.999 | CD74.M.V RPPA level (Average): 0.998 | CD134.R.V RPPA level (Average): 0.994 | CD171.M.V RPPA level (Average): 0.762 | CDK1_pT14.R.C RPPA level (Average): 1.056 | CDK9.R.V RPPA level (Average): 0.964 | CDKN2A.R.C RPPA level (Average): 1.024 | CDT1.R.V RPPA level (Average): 0.971 | CENP.A.R.V RPPA level (Average): 1.548 | CHD1L.R.V RPPA level (Average): 0.954 | CIITA.R.C RPPA level (Average): 1.002 | COG3.R.V RPPA level (Average): 1.098 | CRABP1.R.C RPPA level (Average): 1.025 | CRABP2.R.V RPPA level (Average): 0.977 | CREB_pS133.R.C RPPA level (Average): 1.270 | CSK.R.C RPPA level (Average): 0.987 | Calnexin.R.V RPPA level (Average): 0.956 | Caspase.7.cleaved..R.C RPPA level (Average): 0.982 | Caspase.8.M.Q RPPA level (Average): 0.929
